± gives the standard deviation of the averaged measurements.
Experiments:
[1] = compound: CC(=O)NCC(=O)N1[C@@H]2CC[C@H]1c1ccc(Nc3ncc(C(F)(F)F)c(NC4CCC4)n3)cc12; assay: surviving fraction relative to DMSO-only wells; higher = less growth inhibition; conditions: exposure time: 5 days
Outline: (§1)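 Log-phase tumour cells were seeded at 250–500 per well in 384-well plates and, from 24 hours after seeding, exposed continuously for five days to inhibitors at 0.5, 1, 5, 10, 50, 100, 500 and 1000 nM. Surviving fraction is CellTiter-Glo luminescence normalised to the median of DMSO-only wells. Luminescence was measured after 10 minutes at room temperature, and only lines screened three times with replicate Pearson r >0.7 and median Z' >0.3 were kept.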

YM155 [2] = compound: T1, COCC[n+]1c2c(n(Cc3cnccn3)c1C)C(=O)c1ccccc1C2=O [YM155]; assay: as above; conditions: exposure time: 5 days
Outline: as §1

GEFITINIB [3] = compound: T2, COc1cc2ncnc(Nc3ccc(F)c(Cl)c3)c2cc1OCCCN1CCOCC1 [GEFITINIB]; assay: as above; conditions: exposure time: 5 days
Outline: as §1

CAMPTOTHECIN [4] = compound: T3, CC[C@@]1(O)C(=O)OCc2c1cc1n(c2=O)Cc2cc3ccccc3nc2-1 [CAMPTOTHECIN]; assay: as above; conditions: exposure time: 5 days
Outline: as §1

PACLITAXEL = compound: CC(=O)O[C@H]1C(=O)[C@@]2(C)[C@H]([C@H](OC(=O)c3ccccc3)[C@]3(O)C[C@H](OC(=O)[C@H](O)[C@@H](NC(=O)c4ccccc4)c4ccccc4)C(C)=C1C3(C)C)[C@]1(OC(C)=O)CO[C@@H]1C[C@@H]2O [PACLITAXEL]; assay: area under dose-response curve of surviving fraction (unscaled, Aref=0) (surviving fraction x log10(nM)); higher = more resistant; conditions: exposure time: 5 days; dose range 0.5-1000 nM
Outline: (§2)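 Tumour cell lines in 384-well plates were exposed to eight inhibitor concentrations, from 0.5 to 1000 nM, for five days, and viability was read by CellTiter-Glo luminescence in three screens per line. Signals were normalised to DMSO-only wells, and 3-parameter logistic regression in the drc R package fitted dose-response survival curves to the surviving fractions. Area under the curve is given as the unscaled activity area. That area is taken over log10 dose with Aref = 0.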

CARBOPLATIN = compound: O=C(O)C1(C(=O)O)CCC1.[NH2-].[NH2-].[Pt+2] [CARBOPLATIN]; assay: as above; conditions: exposure time: 5 days; dose range 0.5-1000 nM
Outline: as §2

[5] = compound: CC(=O)c1c(C)c2cnc(Nc3ccc(N4CCNCC4)cn3)nc2n(C2CCCC2)c1=O; assay: as above; conditions: exposure time: 5 days; dose range 0.5-1000 nM
Outline: as §2

CELECOXIB = compound: Cc1ccc(-c2cc(C(F)(F)F)nn2-c2ccc(S(N)(=O)=O)cc2)cc1 [CELECOXIB]; assay: as above; conditions: exposure time: 5 days; dose range 0.5-1000 nM
Outline: as §2

OSI-906 = compound: C[C@]1(O)C[C@@H](c2nc(-c3ccc4ccc(-c5ccccc5)nc4c3)c3c(N)nccn32)C1 [OSI-906]; assay: as above; conditions: exposure time: 5 days; dose range 0.5-1000 nM
Outline: as §2

[6] = compound: CC(=O)NCC(=O)N1[C@@H]2CC[C@H]1c1ccc(Nc3ncc(C(F)(F)F)c(NC4CCC4)n3)cc12; assay: as above; conditions: exposure time: 5 days; dose range 0.5-1000 nM
Outline: as §2

YM155 [7] = compound: T1, YM155; assay: as above; conditions: exposure time: 5 days; dose range 0.5-1000 nM
Outline: as §2

GEFITINIB [8] = compound: T2, GEFITINIB; assay: as above; conditions: exposure time: 5 days; dose range 0.5-1000 nM
Outline: as §2

CAMPTOTHECIN [9] = compound: T3, CAMPTOTHECIN; assay: as above; conditions: exposure time: 5 days; dose range 0.5-1000 nM
Outline: as §2

Question: MDAMB436 BREAST was tested. Which surviving fraction ([1]; 0.5 nM) did it give?
Answer: The surviving fraction was 0.912 ± 0.039.

Question: And the surviving fraction ([1]; 1 nM)?
Answer: Its surviving fraction is 0.875 ± 0.053.

Question: What about the surviving fraction ([1]; 5 nM) of the same test system?
Answer: The surviving fraction was 0.908 ± 0.033.

Question: And the surviving fraction ([1]; 10 nM)?
Answer: The surviving fraction was 0.882 ± 0.12.

Question: What about the surviving fraction ([1]; 50 nM) of the same test system?
Answer: The surviving fraction was 0.937 ± 0.1.

Question: What about the surviving fraction ([1]; 100 nM) of the same test system?
Answer: Its surviving fraction is 0.762 ± 0.079.

Question: And the surviving fraction ([1]; 500 nM)?
Answer: Its surviving fraction is 0.435 ± 0.021.

Question: What about the surviving fraction ([1]; 1000 nM) of the same test system?
Answer: Its surviving fraction is 0.391 ± 0.03.

Question: What about the surviving fraction (YM155 [2]; 0.5 nM) of the same test system?
Answer: The surviving fraction was 0.932 ± 0.065.

Question: And the surviving fraction (YM155 [2]; 1 nM)?
Answer: Its surviving fraction is 0.929 ± 0.14.

Question: And the surviving fraction (YM155 [2]; 5 nM)?
Answer: Its surviving fraction is 0.744 ± 0.13.

Question: And the surviving fraction (YM155 [2]; 10 nM)?
Answer: The surviving fraction was 0.556 ± 0.099.

Question: What about the surviving fraction (YM155 [2]; 50 nM) of the same test system?
Answer: Its surviving fraction is 0.195 ± 0.05.

Question: What about the surviving fraction (YM155 [2]; 100 nM) of the same test system?
Answer: Its surviving fraction is 0.115 ± 0.031.

Question: And the surviving fraction (YM155 [2]; 500 nM)?
Answer: Its surviving fraction is 0.0377 ± 0.0074.

Question: And the surviving fraction (YM155 [2]; 1000 nM)?
Answer: The surviving fraction was 0.0453 ± 0.013.

Question: What about the surviving fraction (GEFITINIB [3]; 0.5 nM) of the same test system?
Answer: Its surviving fraction is 1.02 ± 0.091.

Question: And the surviving fraction (GEFITINIB [3]; 1 nM)?
Answer: The surviving fraction was 1.01 ± 0.06.

Question: And the surviving fraction (GEFITINIB [3]; 5 nM)?
Answer: The surviving fraction was 0.994 ± 0.026.

Question: And the surviving fraction (GEFITINIB [3]; 10 nM)?
Answer: The surviving fraction was 1.09 ± 0.098.

Question: What about the surviving fraction (GEFITINIB [3]; 50 nM) of the same test system?
Answer: Its surviving fraction is 0.993 ± 0.12.

Question: What about the surviving fraction (GEFITINIB [3]; 100 nM) of the same test system?
Answer: The surviving fraction was 1.03 ± 0.084.

Question: What about the surviving fraction (GEFITINIB [3]; 500 nM) of the same test system?
Answer: Its surviving fraction is 1.08 ± 0.098.

Question: And the surviving fraction (GEFITINIB [3]; 1000 nM)?
Answer: The surviving fraction was 1.08 ± 0.1.

Question: And the surviving fraction (CAMPTOTHECIN [4]; 0.5 nM)?
Answer: Its surviving fraction is 0.678 ± 0.074.

Question: And the surviving fraction (CAMPTOTHECIN [4]; 1 nM)?
Answer: The surviving fraction was 0.677 ± 0.055.

Question: What about the surviving fraction (CAMPTOTHECIN [4]; 5 nM) of the same test system?
Answer: Its surviving fraction is 0.391 ± 0.047.

Question: What about the surviving fraction (CAMPTOTHECIN [4]; 10 nM) of the same test system?
Answer: Its surviving fraction is 0.318 ± 0.048.

Question: What about the surviving fraction (CAMPTOTHECIN [4]; 50 nM) of the same test system?
Answer: Its surviving fraction is 0.2 ± 0.017.

Question: And the surviving fraction (CAMPTOTHECIN [4]; 100 nM)?
Answer: The surviving fraction was 0.177 ± 0.0068.

Question: What about the surviving fraction (CAMPTOTHECIN [4]; 500 nM) of the same test system?
Answer: The surviving fraction was 0.142 ± 0.018.

Question: And the surviving fraction (CAMPTOTHECIN [4]; 1000 nM)?
Answer: Its surviving fraction is 0.141 ± 0.022.

Question: What about the “area under dose-response curve” value (PACLITAXEL) of the same test system?
Answer: Its value is 1.01.

Question: What about the “area under dose-response curve” value (CARBOPLATIN) of the same test system?
Answer: Its value is 3.18.

Question: What about the “area under dose-response curve” value [5] of the same test system?
Answer: The value was 3.02.

Question: And the “area under dose-response curve” value (CELECOXIB)?
Answer: Its value is 3.4.

Question: And the “area under dose-response curve” value (OSI-906)?
Answer: Its value is 2.93.

Question: What about the “area under dose-response curve” value [6] of the same test system?
Answer: The value was 2.63.

Question: And the “area under dose-response curve” value (YM155 [7])?
Answer: Its value is 1.42.

Question: And the “area under dose-response curve” value (GEFITINIB [8])?
Answer: Its value is 3.12.

Question: What about the “area under dose-response curve” value (CAMPTOTHECIN [9]) of the same test system?
Answer: Its value is 1.06.
